Data: patent US20070082945A1, “Discodermolide compositions” (priority 2003, published 2007)
Converted amounts (≈) assume the structure as drawn.

Key:
[1] = Solubility of discodermolide in various solvent systems measured by HPLC; type: physicochemical
Experimental: The solubility of discodermolide in various solvent systems is measured by HPLC and the results shown below: […]

[2] = Precipitation on direct i.v. infusion followed by normal saline flush; settings: direct i.v. infusion into the vein followed by a normal saline flush
Experimental: Preferably the infusion solution of the present invention is prepared by mixing the infusion concentrate with a diluent, such as 16.3% w/v ethanol in saline in a suitable container. A preferred formulation comprises 1 mL of 2 mg/mL infusion concentrate diluted with 1.6 mL of 16.3% w/v ethanol in saline to yield an infusion solution containing 0.77 mg/mL discodermolide in 40% propylene glycol, 10% ethanol and 50% normal saline. This solution is administered via i.v. infusion, or push into Y tubing containing a 0.9% normal saline drip, directly into the vein and the drug solution residue in the tubing will be flushed with normal saline. The volume of discodermolide solution given via i.v. push will vary from 0.3 mL (at the starting does of 0.2 mg or 0.13 mg/m^2) to 26 mL (for a dose of 20 mg or 11.43 mg/m^2) or 43 mL (for a dose of 33 mg or 19.2 mg/m^2).

[3] = Effect of organic solvent ratio variation on solubility; type: physicochemical; settings: propylene glycol/ethanol/normal saline mixture, aqueous with cosolvent or surfactant or cyclodextrin
[4] = Stability of propylene glycol infusion concentrates (HPLC, UV detector), Example 12; type: physicochemical
Experimental: The stability of propylene glycol infusion concentrates comprising discodermolide at different concentrations and various temperatures is determined. The stability is analyzed by determining formation of degradation products in each of the infusion concentrates as a function of time and temperature. Each sample is analyzed by HPLC with a UV detector. […] Under accelerated conditions, the levels of impurities increased at both 25° C./60% relative humidity (RH) and 45° C./60% RH.

tubulin = settings: competition with paclitaxel; cited from earlier work
[5] = 0.6 mg/mL infusion concentrate in PG, 0-time
[6] = 0.6 mg/mL infusion concentrate in PG, 5° C., 0.5 month
[7] = 0.6 mg/mL infusion concentrate in PG, 5° C., 1 month
[8] = 0.6 mg/mL infusion concentrate in PG, 5° C., 2 months
[9] = 0.6 mg/mL infusion concentrate in PG, 5° C., 3 months
[10] = 0.6 mg/mL infusion concentrate in PG, 25° C./60% RH, 0.5 month
[11] = 0.6 mg/mL infusion concentrate in PG, 25° C./60% RH, 1 month
[12] = 0.6 mg/mL infusion concentrate in PG, 25° C./60% RH, 2 months
[13] = 0.6 mg/mL infusion concentrate in PG, 25° C./60% RH, 3 months
[14] = 0.6 mg/mL infusion concentrate in PG, 45° C./60% RH, 0.5 month
[15] = 0.6 mg/mL infusion concentrate in PG, 45° C./60% RH, 1 month
[16] = 2.0 mg/mL infusion concentrate in PG, 0-time
[17] = 2.0 mg/mL infusion concentrate in PG, 5° C., 0.5 month
[18] = 2.0 mg/mL infusion concentrate in PG, 5° C., 1 month
[19] = 2.0 mg/mL infusion concentrate in PG, 5° C., 2 months
[20] = 2.0 mg/mL infusion concentrate in PG, 5° C., 3 months
[21] = 2.0 mg/mL infusion concentrate in PG, 25° C./60% RH, 0.5 month
[22] = 2.0 mg/mL infusion concentrate in PG, 25° C./60% RH, 1 month
[23] = 2.0 mg/mL infusion concentrate in PG, 25° C./60% RH, 2 months
[24] = 2.0 mg/mL infusion concentrate in PG, 25° C./60% RH, 3 months
[25] = 2.0 mg/mL infusion concentrate in PG, 45° C./60% RH, 0.5 month
[26] = 2.0 mg/mL infusion concentrate in PG, 45° C./60% RH, 1 month
[27] = 3.0 mg/mL infusion concentrate in PG, 0-time
[28] = 3.0 mg/mL infusion concentrate in PG, 5° C., 0.5 month
[29] = 3.0 mg/mL infusion concentrate in PG, 5° C., 1 month
[30] = 3.0 mg/mL infusion concentrate in PG, 5° C., 2 months
[31] = 3.0 mg/mL infusion concentrate in PG, 5° C., 3 months
[32] = 3.0 mg/mL infusion concentrate in PG, 25° C./60% RH, 0.5 month
[33] = 3.0 mg/mL infusion concentrate in PG, 25° C./60% RH, 1 month
[34] = 3.0 mg/mL infusion concentrate in PG, 25° C./60% RH, 2 months
[35] = 3.0 mg/mL infusion concentrate in PG, 25° C./60% RH, 3 months
[36] = 3.0 mg/mL infusion concentrate in PG, 45° C./60% RH, 0.5 month
[37] = 3.0 mg/mL infusion concentrate in PG, 45° C./60% RH, 1 month

C=C/C=C\C(C)[C@H](OC(N)=O)[C@@H](C)[C@H](O)[C@@H](C)C/C(C)=C\C(C)C(O)[C@@H](C)/C=C\[C@@H](O)C[C@@H]1OC(=O)[C@H](C)C(O)C1C (single isomer, unassigned; (+)) [discodermolide, (+)-Discodermolide]
solubility ([1]; 20% PEG 300/80% normal saline, aqueous with cosolvent or surfactant or cyclodextrin): 20 µg/mL (≈ 33.7 µM) | solubility ([1]; 20% propylene glycol/80% normal saline, aqueous with cosolvent or surfactant or cyclodextrin, 20% PG/80% normal saline): 130 µg/mL (≈ 219 µM) | solubility ([1]; 30% ethanol/70% normal saline, aqueous with cosolvent or surfactant or cyclodextrin): 200 µg/mL (≈ 337 µM) | solubility ([1]; 60% PEG 300/40% normal saline, aqueous with cosolvent or surfactant or cyclodextrin): 400 µg/mL (≈ 674 µM) | solubility ([1]; 60% ethanol/40% normal saline, aqueous with cosolvent or surfactant or cyclodextrin): 2300 µg/mL (≈ 3870 µM) | solubility ([1]; 60% propylene glycol/40% normal saline, aqueous with cosolvent or surfactant or cyclodextrin, 60% PG/40% normal saline): 530 µg/mL (≈ 893 µM) | solubility ([1]; 100% PEG 300, organic solvent or mixture): > 20000 µg/mL | solubility ([1]; 100% ethanol, organic solvent or mixture): > 20000 µg/mL | solubility ([1]; 100% propylene glycol, organic solvent or mixture, 100% PG): > 20000 µg/mL | Precipitation on administration [2]: will not cause any precipitation | solubility ([3]; PG 38 / EtOH 9 / normal saline 53 (%, w/v)): 640 µg/mL | solubility ([3]; PG 38 / EtOH 9.5 / normal saline 52.5 (%, w/v)): 700 µg/mL | solubility ([3]; PG 40 / EtOH 8 / normal saline 52 (%, w/v)): 620 µg/mL | solubility ([3]; PG 40 / EtOH 9 / normal saline 51 (%, w/v)): 770 µg/mL | solubility ([3]; PG 40 / EtOH 9.6 / normal saline 50.4 (%, w/v)): 870 µg/mL | solubility ([3]; PG 40 / EtOH 10 / normal saline 50 (%, w/v)): 960 µg/mL | Assay [4, 5]: 100.4 % label claim | Total Impurities [4, 5]: 0.18% | Assay [4, 6]: 103.2 % label claim | Total Impurities [4, 6]: 0.16% | Assay [4, 7]: 102.6 % label claim | Total Impurities [4, 7]: 0.19% | Assay [4, 8]: 103.3 % label claim | Total Impurities [4, 8]: 0.27% | Assay [4, 9]: 103.8 % label claim | Total Impurities [4, 9]: 0.29% | Assay [4, 10]: 102.8 % label claim | Total Impurities [4, 10]: 0.65% | Assay [4, 11]: 101.9 % label claim | Total Impurities [4, 11]: 1.08% | Assay [4, 12]: 102.5 % label claim | Total Impurities [4, 12]: 1.18% | Assay [4, 13]: 102.4 % label claim | Total Impurities [4, 13]: 1.43% | Assay [4, 14]: 102.0 % label claim | Total Impurities [4, 14]: 1.49% | Assay [4, 15]: 101.6 % label claim | Total Impurities [4, 15]: 1.91% | Assay [4, 16]: 99.9 % label claim | Total Impurities [4, 16]: 0.19% | Assay [4, 17]: 103.2 % label claim | Total Impurities [4, 17]: 0.16% | Assay [4, 18]: 100.5 % label claim | Total Impurities [4, 18]: 0.18% | Assay [4, 19]: 102.5 % label claim | Total Impurities [4, 19]: 0.18% | Assay [4, 20]: 101.0 % label claim | Total Impurities [4, 20]: 0.54% | Assay [4, 21]: 101.1 % label claim | Total Impurities [4, 21]: 0.55% | Assay [4, 22]: 99.6 % label claim | Total Impurities [4, 22]: 0.78% | Assay [4, 23]: 101.4 % label claim | Total Impurities [4, 23]: 1.18% | Assay [4, 24]: 100.9 % label claim | Total Impurities [4, 24]: 1.48% | Assay [4, 25]: 100.3 % label claim | Total Impurities [4, 25]: 1.17% | Assay [4, 26]: 100.0 % label claim | Total Impurities [4, 26]: 1.69% | Assay [4, 27]: 102.7 % label claim | Total Impurities [4, 27]: 0.19% | Assay [4, 28]: 101.5 % label claim | Total Impurities [4, 28]: 0.16% | Assay [4, 29]: 102.0 % label claim | Total Impurities [4, 29]: 0.19% | Assay [4, 30]: 104.1 % label claim | Total Impurities [4, 30]: 0.17% | Assay [4, 31]: 104.4 % label claim | Total Impurities [4, 31]: 0.29% | Assay [4, 32]: 102.4 % label claim | Total Impurities [4, 32]: 0.35% | Assay [4, 33]: 101.3 % label claim | Total Impurities [4, 33]: 0.52% | Assay [4, 34]: 103.1 % label claim | Total Impurities [4, 34]: 0.69% | Assay [4, 35]: 102.1 % label claim | Total Impurities [4, 35]: 0.69% | Assay [4, 36]: 100.9 % label claim | Total Impurities [4, 36]: 0.58% | Assay [4, 37]: 101.5 % label claim | Total Impurities [4, 37]: 0.70% | Levels of impurities under accelerated conditions ([4]; 25° C./60% RH and 45° C./60% RH): increased | Change in discodermolide content ([4]; PG infusion concentrates, after 3 months at 5° C.): No significant changes | Total impurity amounts ([4]; PG infusion concentrates, after 3 months at 5° C., versus proposed specification limit): < 2.0% | Binding to tubulin (tubulin): binds to tubulin competitively with paclitaxel
